The source of these data is US4795751A, “5-substituted-6,8-difluoroquinolines useful as antibacterial agents” (Dainippon Pharmaceutical Co., Ltd., priority 1985, dated 1989).

Values after ≈ are worked out from the molar mass of the structure shown.

One data set relates to B. subtilis PCI 219. The data set is described as follows: In vitro antibacterial activity, twofold agar-dilution method. The conditions noted are these: Bacillus subtilis, PCI219; B. subtilis PCI 219 (Gram +); Mueller-Hinton agar, 20 h, 37° C.; calculated for free base; read-out: minimum inhibitory concentration (MIC). It is filed as cell-based. On the procedure: (§1) The numbers in the table show minimum inhibitory concentrations (MIC) (μg/ml), calculated for free base. The minimum inhibitory concentration was determined by the twofold agar-dilution method, which was recommended by Japan Society of Chemotherapy (Chemotherapy, 29(1), 76(1981)), using Muller-Hinton agar. One loopful of an overnight culture of test organisms in Mueller-Hinton broth was inoculated onto 10-ml drug-containing agar layers in petri dishes. Bacterial inocula contained approximately 10^6 colonyl-formingunits. Bacterial growth was observed after 20-hour incubation at 37° C. The MIC was defined as the lowest drug concentration which prevented visible bacterial growth.

Another data set concerns Ac. calcoaceticus P-6901. The description is as above. Format: cell-based. The conditions noted are these: Acinetobacter calcoaceticus, P6901; Ac. calcoaceticus P-6901 (Gram -); Mueller-Hinton agar, 20 h, 37° C.; calculated for free base; read-out: minimum inhibitory concentration (MIC). As to the method: as §1
The test system of the next data set is S. aureus 209P JC-1. Described as above. It is filed as cell-based. The conditions noted are these: Staphylococcus aureus; S. aureus 209P JC-1 (Gram +); Mueller-Hinton agar, 20 h, 37° C.; calculated for free base; read-out: minimum inhibitory concentration (MIC). On the procedure: as §1
Another data set concerns S. aureus No. 80. The description is as above. Conditions: Staphylococcus aureus; S. aureus No. 80 (Gram +); Mueller-Hinton agar, 20 h, 37° C.; calculated for free base; read-out: minimum inhibitory concentration (MIC). Format: cell-based. As to the method: as §1
A further data set has as its system S. aureus No. 50774. The description is as above. Format: cell-based. The conditions noted are these: Staphylococcus aureus; S. aureus No. 50774 (Gram +); Mueller-Hinton agar, 20 h, 37° C.; calculated for free base; read-out: minimum inhibitory concentration (MIC). As to the method: as §1
The next data set relates to Al. faecalis P-7001. The description is as above. Conditions: Alcaligenes faecalis, P7001; Al. faecalis P-7001 (Gram -); Mueller-Hinton agar, 20 h, 37° C.; calculated for free base; read-out: minimum inhibitory concentration (MIC). Format: cell-based. As to the method: as §1
For a further data set, the system named is S. epidermidis No. 8. Described as above. It is filed as cell-based. Conditions: Staphylococcus epidermidis; S. epidermidis No. 8 (Gram +); Mueller-Hinton agar, 20 h, 37° C.; calculated for free base; read-out: minimum inhibitory concentration (MIC). On the procedure:
as §1

The subject of a further data set is E. coli P-51213. The description is as above. It is filed as cell-based. Conditions: Escherichia coli, P51213; E. coli P-51213 (Gram -); Mueller-Hinton agar, 20 h, 37° C.; calculated for free base; read-out: minimum inhibitory concentration (MIC). On the procedure: as §1
A further data set relates to P. aeruginosa No. 12. The description is as above. Conditions: Pseudomonas aeruginosa; P. aeruginosa No. 12 (Gram -); Mueller-Hinton agar, 20 h, 37° C.; calculated for free base; read-out: minimum inhibitory concentration (MIC). It is filed as cell-based. On the procedure:
as §1

For data set [1], the system named is Staphylococcus aureus 50774. The data set can be described thus: In vivo efficacy against systemic infections in mice. Details: species or system Staphylococcus aureus; male mice (ddY-S). The conditions noted are these: Staphylococcus aureus, 50774, 336 h, oral, intravenous infection 5×10^8 cells, twice, immediately and 6 h after infection, 14 days, calculated for free base, read-out: median effective dose (ED50). On the procedure:
Compounds were each dissolved in deionized water. Each of the solutions was orally administered to mice infected with each of the test organisms under the conditions shown hereinbelow, and the median effective dose (ED50) was calculated by probit analysis. The numerals in the table show ED50 (mg/kg) value, calculated for free base.
Mice: Male mice (ddY-S) weighing about 20 g
Staphylococcus aureus 50774
Intravenous infection with 5×10^8 cells per mouse suspended in saline.
Four times, immediately, 6, 24 and 30 hours after infection in case of Streptococcus pneumoniae 1 Neufeld. Twice, immediately and 6 hours after infection in case of other organisms.
For 14 days in case of Staphylococcus aureus 50774 and Streptocuccus pneumoniae 1 Neufeld. For 7 days in case of other organisms.

Data set [2] is described as follows: Acute oral toxicity in mice. Conditions: mouse, in vivo, po. As to the method:
(§2) A solution containing each of compounds 1, 2 and 3 of this invention in various concentrations was orally given to male mice (ddY) at a dose of 0.1 ml per 10 g of body weight. The number of dead mice was counted after 7 days, and the value of median lethal dose (LD50, mg/kg) was calculated in accordance with the Behrens-Kaerber method.

The next data set deals with male mice (ddY). The data set is described as follows: Acute oral toxicity in mice. The conditions noted are these: conclusion in words from Table 5. On the procedure: as §2
The subject of a further data set is M. fermentans PG-18. The data set is described as follows: Anti-Mycoplasma activity, twofold agar-dilution method. Format: cell-based. The conditions noted are these: Mycoplasmopsis fermentans, PG18, 48 h, Chanock agar, 37° C., 2 days anaerobically, calculated for free base, read-out: minimum inhibitory concentration (MIC). As to the method: (§3) The numbers in the table show minimum inhibitory concentrations (MIC) (μg/ml), calculated for free base. The minimum inhibitory concentration was determined by the twofold agar-dilution method using Chanock agar. Three μl of a culture of test organisms in Chanock broth was inoculated onto 10-ml drug-containing agar layers in petri dishes. Growth of Mycoplasma was observed after incubation at 37° C. under the conditions shown hereinbelow. The MIC was defined as the lowest drug concentration which prevented growth of Mycoplasma microscopically.

The next data set deals with M. buccale CH-20247. The description is as above. The conditions noted are these: 48 h, Chanock agar, 37° C., 2 days anaerobically, calculated for free base, read-out: minimum inhibitory concentration (MIC). It is filed as cell-based. As to the method:
as §3

The test system of a further data set is M. hominis PG-21. The data set is described as above. Format: cell-based. The conditions noted are these: Metamycoplasma hominis, PG21, 48 h, Chanock agar, 37° C., 2 days anaerobically, calculated for free base, read-out: minimum inhibitory concentration (MIC). On the procedure:
as §3

A further data set relates to M. pneumoniae Mac. The description is as above. Conditions: Mycoplasmoides pneumoniae, 168 h, Chanock agar, 37° C., 7 days aerobically, calculated for free base, read-out: minimum inhibitory concentration (MIC). It is filed as cell-based. On the procedure: as §3
The test system of the next data set is M. bovis P-7101. The data set is described as follows: microbe, parasite or virus in culture. It is filed as cell-based. Conditions: Mycobacterium tuberculosis variant bovis, P7101, 20 h, read-out: minimum inhibitory concentration (MIC).
The test system of another data set is A. laidlawii PG-8. The data set is described as follows: Anti-Mycoplasma activity, twofold agar-dilution method. Format: cell-based. The conditions noted are these: Acholeplasma laidlawii, PG8, 48 h, Chanock agar, 37° C., 2 days aerobically, calculated for free base, read-out: minimum inhibitory concentration (MIC). On the procedure:
as §3
(§4) Mycoplasma arginini and Acholeplasma laidlawii

Another data set relates to M. arginini G-230. The data set is described as above. Format: cell-based. Conditions: Mycoplasmopsis arginini, G230, 48 h, Chanock agar, 37° C., 2 days aerobically, calculated for free base, read-out: minimum inhibitory concentration (MIC). As to the method:
as §3, §4

Take `CC1CN(c2c(F)c(N)c3c(=O)c(C(=O)O)cn(C4CC4)c3c2F)CCN1` (stereo not shown) [Compound 1, 5-Amino-1-cyclopropyl-6,8-difluoro-7-(3-methyl-1-piperazinyl)-1,4-dihydro-4-oxoquinoline-3-carboxylic acid]: the MIC is 0.05 µg/mL (≈ 0.132 µM) in the data set on B. subtilis PCI 219; 0.0125 µg/mL (≈ 0.033 µM) in the data set with Ac. calcoaceticus P-6901; 0.025 µg/mL (≈ 0.0661 µM) in the data set on S. aureus 209P JC-1; 0.0125 µg/mL (≈ 0.033 µM) in the data set on S. aureus No. 80; 0.0125 µg/mL (≈ 0.033 µM) in the data set with S. aureus No. 50774; 0.1 µg/mL (≈ 0.264 µM) with Al. faecalis P-7001. Also, the MIC with S. epidermidis No. 8 was 0.025 µg/mL (≈ 0.0661 µM); in the data set with E. coli P-51213, 0.025 µg/mL (≈ 0.0661 µM); in the data set on P. aeruginosa No. 12, 0.1 µg/mL (≈ 0.264 µM); in the data set with M. fermentans PG-18, 0.0063 µg/mL (≈ 0.0166 µM); in the data set on M. buccale CH-20247, 0.0125 µg/mL (≈ 0.033 µM); with M. hominis PG-21, 0.05 µg/mL (≈ 0.132 µM). The MIC was 0.025 µg/mL (≈ 0.0661 µM) with M. pneumoniae Mac, 0.2 µg/mL (≈ 0.529 µM) in the data set on M. bovis P-7101, 0.1 µg/mL (≈ 0.264 µM) in the data set with A. laidlawii PG-8 and 0.1 µg/mL (≈ 0.264 µM) in the data set on M. arginini G-230. Also, the median effective dose (ED50) in data set [1] is 1.35 mg/kg. Moreover, the 50% lethal dose (LD50) at 168 h in data set [2] is > 2000 mg/kg. The oral toxicity entry in the data set with male mice (ddY) is “low oral toxicity”.

The term ED50 denotes the dose at which the effect has come halfway, by size or by number of responders. Usually LD50 stands for the dose expected to kill half of the subjects tested.
